Where a SMILES comes first, the peptide text is derived from it. Bridges are numbered along the chain shown (N, C = ends). [ ]: non-standard residue; d: D form. The star is where a group is joined. d(aIle) = CC[C@H](C)[C@@H](N)C(=O)O; d(aThr) = C[C@@H](O)[C@@H](N)C(=O)O; Hexanoyl(5-Me) = CC(C)CCCC(=O)*; Orn = NCCC[C@H](N)C(=O)O; Dhb = C/C=C(\N)C(=O)O
What was measured:
Type in all cases: cell-based, human
IGROV-1 = experiment: SRB colorimetric assay of cell growth and viability, IGROV-1; settings: 48 hours exposure
Description: (§1) The finality of this assay is to interrupt the growth of a “in vitro” tumor cell culture by means a continued exhibition of the cells to the sample to be testing.
(§2) This form of the assay employs 96 well cell culture microplates of 9 mm diameter (Faircloth, 1988; Mosmann, 1983). Most of the cell lines are obtained from American Type Culture Collection (ATCC) derived from different human cancer types.
(§3) Cells are maintained in RPMI 1640 10% FBS, supplemented with 0.1 g/l penicillin and 0.1 g/l streptomycin sulfate and then incubated at 37° C., 5% CO2 and 98% humidity. For the experiments, cells were harvested from subconfluent cultures using trypsin and resuspended in fresh medium before plating.
(§4) Cells are seeded in 96 well microtiter plates, at 5×10^3 cells per well in aliquots of 195 μL medium, and they are allowed to attach to the plate surface by growing in drug free medium for 18 hours. Afterward, samples are added in aliquots of 5 μL in a ranging from 10 to 10^−8 μg/mL, dissolved in DMSO:EtOH:PBS (0.5:0.5:99). After 48 hours exposure, the antitumor effect are measured by the SRB methodology: cells are fixed by adding 50 μL of cold 50% (wt/vol) trichloroacetic acid (TCA) and incubating for 60 minutes at 4° C. Plates are washed with deionized water and dried. One hundred μL of SRB solution (0.4% wt/vol in 1% acetic acid) is added to each microtiter well and incubated for 10 minutes at room temperature. Unbound SRB is removed by washing with 1% acetic acid. Plates are air dried and bound stain is solubilized with Tris buffer. Optical densities are read on a automated spectrophotometric plate reader at a single wavelength of 490 nm.
(§5) The values for mean+/− SD of data from triplicate wells are calculated. Some parameters for cellular responses can be calculated: GI=growth inhibition, TGI=total growth inhibition (cytostatic effect) and LC=cell killing (cytotoxic effect).

IGROV-ET = experiment: SRB colorimetric assay of cell growth and viability, IGROV-ET; settings: 48 hours exposure; for CC50: read-out: LC50 IGROV-ET
Description: as §1, §2, §3, §4, §5

LoVo = experiment: SRB colorimetric assay of cell growth and viability, LoVo; settings: 48 hours exposure; for CC50: read-out: LC50 LOVO
Description: as §1, §2, §3, §4, §5

SK-MEL-28 = experiment: SRB colorimetric assay of cell growth and viability, SK-MEL-28; settings: 48 hours exposure; for CC50: read-out: LC50 MEL-28
Description: as §1, §2, §3, §4, §5

LoVo-Dox = experiment: SRB colorimetric assay of cell growth and viability, LoVo-Dox; settings: 48 hours exposure; for CC50: read-out: LC50 LOVO-DOX
Description: as §1
A colorimetric type of assay, using sulforhodamine B (SRB) reaction has been adapted for a quantitative measurement of cell growth and viability [following the technique described by Philip Skehan, et al. (1990), New colorimetric cytotoxicity assay for anticancer drug screening, J. Natl. Cancer Inst., 82:1107-1112].
as §2, §3, §4, §5

HeLa-APL = experiment: SRB colorimetric assay of cell growth and viability, HeLa-APL; settings: 48 hours exposure; for CC50: read-out: LC50 HELA-APL
Description: as §1, §2, §3, §4, §5

A-549 = experiment: SRB colorimetric assay of cell growth and viability, A-549; settings: 48 hours exposure; for GI50: read-out: GI50 A-549; for CC50: read-out: LC50 A-549
Description: as §1, §2, §3, §4, §5

PANC-1 = experiment: SRB colorimetric assay of cell growth and viability, PANC-1; settings: 48 hours exposure; for CC50: read-out: LC50 PANC-1
Description: as §1, §2, §3, §4, §5

HeLa = experiment: SRB colorimetric assay of cell growth and viability, HeLa; settings: 48 hours exposure; for CC50: read-out: LC50 HELA
Description: as §1, §2, §3, §4, §5

K-562 = experiment: SRB colorimetric assay of cell growth and viability, K-562; settings: 48 hours exposure; for CC50: read-out: LC50 K-562
Description: as §1, §2, §3, §4, §5

HT-29 = experiment: SRB colorimetric assay of cell growth and viability, HT-29; settings: 48 hours exposure; for GI50: read-out: GI50 HT-29; for CC50: read-out: LC50 HT-29
Description: as §1, §2, §3, §4, §5

DU-145 = experiment: SRB colorimetric assay of cell growth and viability, DU-145; settings: 48 hours exposure
Description: as §1, §2, §3, §4, §5

| SMILES | GI50 (IGROV-1) [µM] | LC50 (concentration causing 50% net cell killing) (IGROV-1) [µM] | TGI IGROV (IGROV-1) [Molar] | GI50 (IGROV-ET) [µM] | TGI IGROV-ET (IGROV-ET) [Molar] | CC50 (IGROV-ET) [µM] | GI50 (LoVo) [µM] | TGI LOVO (LoVo) [Molar] | CC50 (LoVo) [µM] | GI50 (SK-MEL-28) [µM] | TGI MEL-28 (SK-MEL-28) [Molar] | CC50 (SK-MEL-28) [µM] | GI50 (LoVo-Dox) [µM] | TGI LOVO-DOX (LoVo-Dox) [Molar] | CC50 (LoVo-Dox) [µM] | GI50 (HeLa-APL) [µM] | TGI HELA-APL (HeLa-APL) [Molar] | CC50 (HeLa-APL) [µM] | TGI A-549 (A-549) [Molar] | GI50 (A-549) [µM] | also measured |
| --- | --- | --- | --- | --- | --- | --- | --- | --- | --- | --- | --- | --- | --- | --- | --- | --- | --- | --- | --- | --- | --- |
| C/C=C1\NC(=O)[C@H](Cc2ccccc2)NC(=O)[C@@H](C(C)C)NC(=O)[C@@H]([C@@H](C)CC)NC(=O)[C@H](NC(=O)[C@H](NC(=O)[C@H](CCCN)NC(=O)[C@H]2CCCN2C(=O)[C@H](NC(=O)[C@@H](NC(=O)[C@H](C)NC(=O)CCCC(C)C)C(C)C)C(C)C)[C@@H](C)CC)[C@@H](C)OC(=O)[C@H](C(C)C)NC1=O [Compound 52, [Ala^12, noD-Val^13]-KF] ({Hexanoyl(5-Me)}-AV[dV][dP][Orn][d(aIle)][d(aThr)][d(aIle)][dV]F[Dhb]V; ester 7-C) | 7.41 | 7.41 | 7.41E−06 | 3.67 | 7.41E−06 | 7.41 | 7.41 | 7.41E−06 | 7.41 | 7.41 | 7.41E−06 | 7.41 | 7.41 | 7.41E−06 | 7.41 | 0.0179 | 7.41E−06 | 7.41 | 7.41E−06 | 7.41 | CC50 (A-549): 7.41 µM; GI50 (PANC-1): 6.64 µM; TGI PANC-1 (PANC-1): 7.41E−06 Molar; CC50 (PANC-1): 7.41 µM; GI50 (HeLa): 6.18 µM; TGI HELA (HeLa): 7.41E−06 Molar; CC50 (HeLa): 7.41 µM; GI50 (K-562): 7.41 µM; TGI K-562 (K-562): 7.41E−06 Molar; CC50 (K-562): 7.41 µM; TGI HT-29 (HT-29): 7.41E−06 Molar; GI50 (HT-29): 7.41 µM; CC50 (HT-29): 7.41 µM; GI50 (DU-145): 7.41 µM; LC50 (concentration causing 50% net cell kill) (DU-145): 7.41 µM; TGI DU-145 (DU-145): 7.41E−06 Molar |
| C/C=C1\NC(=O)[C@H](Cc2ccccc2)NC(=O)[C@@H](C(C)C)NC(=O)[C@@H]([C@@H](C)CC)NC(=O)[C@H](NC(=O)[C@H](NC(=O)[C@H](CCCN)NC(=O)[C@H]2CCCN2C(=O)[C@H](NC(=O)[C@@H](NC(=O)CNC(=O)CCCC(C)C)C(C)C)C(C)C)[C@@H](C)CC)[C@@H](C)OC(=O)[C@H](C(C)C)NC1=O [Compound 53, [Gly^12, noD-Val^13]-KF] ({Hexanoyl(5-Me)}-GV[dV][dP][Orn][d(aIle)][d(aThr)][d(aIle)][dV]F[Dhb]V; ester 7-C) | 7.49 | 7.49 | 7.49E−06 | 3.31 | 7.49E−06 | 7.49 | 5.29 | 7.49E−06 | 7.49 | 7.49 | 7.49E−06 | 7.49 | 7.49 | 7.49E−06 | 7.49 | 7.49 | 7.49E−06 | 7.49 | 7.49E−06 | 7.49 | CC50 (A-549): 7.49 µM; GI50 (PANC-1): 4.17 µM; TGI PANC-1 (PANC-1): 7.49E−06 Molar; CC50 (PANC-1): 7.49 µM; GI50 (HeLa): 7.49 µM; TGI HELA (HeLa): 7.49E−06 Molar; CC50 (HeLa): 7.49 µM; GI50 (K-562): 7.49 µM; TGI K-562 (K-562): 7.49E−06 Molar; CC50 (K-562): 7.49 µM; TGI HT-29 (HT-29): 7.49E−06 Molar; GI50 (HT-29): 7.49 µM; CC50 (HT-29): 7.49 µM; GI50 (DU-145): 7.49 µM; LC50 (concentration causing 50% net cell kill) (DU-145): 7.49 µM; TGI DU-145 (DU-145): 7.49E−06 Molar |

Reference: patent publication US20070117743A1, “New antitumoral compounds” (priority 2003, published 2007)
